Experimental findings from patent publication US9771352B2, “Hydroxyalkyl-substituted phenyltriazole derivatives and uses thereof” (BAYER PHARMA AKTIENGESELLSCHAFT, priority 2014, dated 2017) are described below.

One assay addresses T1, human V1a receptor (Homo sapiens, UniProt P37288).
T1 construct: expressed in transfected cells; host or cells: CHO K1 (ATCC), also stably transfected with modified aequorin
The assay can be described thus: Cellular in vitro assay for determining vasopressin receptor activity, V1a receptor cell line (photoprotein luminescence). In kind it is cell-based. Particulars: CHO cell line transfected with human V1a receptor; [Arg8]-vasopressin at EC50; compounds of the invention (Table 1A); read-out: IC50 hV1a.

For the next assay, the target named is T2, human V2 receptor (Homo sapiens, UniProt P30518).
T2 construct: expressed in transfected cells; host or cells: CHO K1 (ATCC) expressing firefly luciferase under a CRE-responsive promoter
T2 sequence (P30518 whole entry): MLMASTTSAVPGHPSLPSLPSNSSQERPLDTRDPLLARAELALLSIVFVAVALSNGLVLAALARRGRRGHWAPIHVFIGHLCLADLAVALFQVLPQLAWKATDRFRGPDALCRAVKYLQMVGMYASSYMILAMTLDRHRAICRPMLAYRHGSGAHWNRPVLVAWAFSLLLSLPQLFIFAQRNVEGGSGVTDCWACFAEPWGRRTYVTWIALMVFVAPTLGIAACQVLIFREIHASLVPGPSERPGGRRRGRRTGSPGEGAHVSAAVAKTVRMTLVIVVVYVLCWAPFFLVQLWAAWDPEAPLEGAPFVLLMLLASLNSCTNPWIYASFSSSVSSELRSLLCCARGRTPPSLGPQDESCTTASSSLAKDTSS
The experiment in a line: Cellular in vitro assay for determining vasopressin receptor activity, V2 receptor cell line (CRE-luciferase). The assay is classed as cell-based. Particulars: CHO cell line transfected with human V2 receptor; [Arg8]-vasopressin at EC50; compounds of the invention (Table 1A); read-out: IC50 hV2. The method, boiled down: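 CHO K1 cells stably expressing human V2 receptor with CRE-driven firefly luciferase, plated the day before in DMEM/F12 with 2% FCS at 37° C. Receptor activation raises cAMP and luciferase expression; after Triton lysis and luciferin addition, luminescence is read and IC50 values derived.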

For another assay, the system named is conscious rats. The experiment in a line: Diuresis investigations in conscious rats kept in metabolism cages. In kind it is in vivo, Wistar rats. Particulars: Rattus norvegicus, po, read-out: Urinary volume; for response vs control in vivo at 0.3 mg/kg: dosage p.o. 0.3 mg/kg (Table 2A). The protocol: Wistar rats (220-450 g body weight) are kept with free access to feed (Altromin) and drinking water. During the experiment, the animals are kept with free access to drinking water for 4 to 8 or up to 24 hours individually in metabolism cages suitable for rats of this weight class (Tecniplast Deutschland GmbH, D-82383 HohenpeiBenberg). At the beginning of the experiment, the animals are administered the test substance in a volume of 1 to 3 ml/kg body weight of a suitable solvent by means of gavage into the stomach. Control animals only receive solvent. Controls and substance tests are carried out in parallel on the same day. Control groups and substance-dose groups each consist of 4 to 8 animals. During the experiment, the urine excreted by the animals is collected continuously in a receiver at the base of the cage. The volume of urine per time unit is determined separately for each animal, and the concentration of urinary electrolytes is measured by standard methods of flame photometry. Before the beginning of the experiment, the body weight of the individual animals is determined.

T1 sequence (P37288 whole entry): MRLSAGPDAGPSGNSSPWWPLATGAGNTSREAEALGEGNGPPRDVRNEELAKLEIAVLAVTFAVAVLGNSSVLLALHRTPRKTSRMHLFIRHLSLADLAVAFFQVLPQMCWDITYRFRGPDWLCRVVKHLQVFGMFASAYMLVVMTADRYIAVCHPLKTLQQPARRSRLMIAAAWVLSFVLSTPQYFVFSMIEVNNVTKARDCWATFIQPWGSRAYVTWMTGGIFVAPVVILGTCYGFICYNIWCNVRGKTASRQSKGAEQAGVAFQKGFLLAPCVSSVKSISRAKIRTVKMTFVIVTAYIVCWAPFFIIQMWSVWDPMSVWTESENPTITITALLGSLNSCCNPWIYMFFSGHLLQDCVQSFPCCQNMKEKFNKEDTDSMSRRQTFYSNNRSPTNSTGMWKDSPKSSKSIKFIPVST

In the case of `O=c1n(Cc2nc(CO)n(-c3cc(F)cc(Cl)c3)n2)nc(-c2ccc(Cl)cc2)n1C[C@H](O)C(F)(F)F` [Example 6, 2-{[1-(3-Chloro-5-fluorophenyl)-5-(hydroxymethyl)-1H-1,2,4-triazol-3-yl]methyl}-5-(4-chlorophenyl)-4-[(2S)-3,3,3-trifluoro-2-hydroxypropyl]-2,4-dihydro-3H-1,2,4-triazol-3-one], the IC50 stood at 10.6 nM on human V1a receptor and 1.7 nM at human V2 receptor. Also, the response vs control in vivo at 0.3 mg/kg in the assay with conscious rats is 132%. For the same compound, the response vs control in vivo at 1 mg/kg with conscious rats (dosage p.o. 1.0 mg/kg (Table 2A)) was 439%.

On to `C[C@H](O)c1nc(Cn2nc(-c3ccc(Cl)cc3)n(C[C@H](O)C(F)(F)F)c2=O)nn1-c1cccc(F)c1` [Example 76, 5-(4-Chlorophenyl)-2-({1-(3-fluorophenyl)-5-[(1S)-1-hydroxyethyl]-1H-1,2,4-triazol-3-yl}-methyl)-4-[(2S)-3,3,3-trifluoro-2-hydroxypropyl]-2,4-dihydro-3H-1,2,4-triazol-3-one], for which the half-maximal inhibitory concentration (IC50) on human V1a receptor was determined as 2.5 nM; at human V2 receptor, 5.1 nM. The response vs control in vivo at 0.3 mg/kg in the assay with conscious rats was determined as 350%.

`C[C@H](O)c1nc(Cn2nc(-c3ccc(Cl)cc3)n(C[C@H](O)C(F)(F)F)c2=O)nn1-c1cccc(Cl)c1` [Example 79, 5-(4-Chlorophenyl)-2-({1-(3-chlorophenyl)-5-[(1S)-1-hydroxyethyl]-1H-1,2,4-triazol-3-yl}-methyl)-4-[(2S)-3,3,3-trifluoro-2-hydroxypropyl]-2,4-dihydro-3H-1,2,4-triazol-3-one]: the IC50 at human V1a receptor was determined as 3.6 nM; at human V2 receptor, 1.7 nM. Further, the response vs control in vivo at 0.3 mg/kg in the assay with conscious rats came to 612%.

As to `C[C@H](O)c1nc(Cn2nc(-c3ccc(Cl)cc3)n(C[C@H](O)C(F)(F)F)c2=O)nn1-c1ccccc1Cl` [Example 82, 5-(4-Chlorophenyl)-2-({1-(2-chlorophenyl)-5-[(1S)-1-hydroxyethyl]-1H-1,2,4-triazol-3-yl}-methyl)-4-[(2S)-3,3,3-trifluoro-2-hydroxypropyl]-2,4-dihydro-3H-1,2,4-triazol-3-one], the IC50 amounted to 0.7 nM on human V1a receptor and 2.3 nM on human V2 receptor. In addition, in the assay on conscious rats, the response vs control in vivo at 0.3 mg/kg was 220%. In the assay on conscious rats (dosage p.o. 3.0 mg/kg (Table 2A)), the response vs control in vivo at 3 mg/kg was 828%.

On to `C[C@@H](O)c1nc(Cn2nc(-c3ccc(Cl)cc3)n(C[C@H](O)C(F)(F)F)c2=O)nn1-c1ccccc1Cl` [Example 83, 5-(4-Chlorophenyl)-2-({1-(2-chlorophenyl)-5-[(1R)-1-hydroxyethyl]-1H-1,2,4-triazol-3-yl}-methyl)-4-[(2S)-3,3,3-trifluoro-2-hydroxypropyl]-2,4-dihydro-3H-1,2,4-triazol-3-one], for which the figures for the IC50 on human V1a receptor and on human V2 receptor were 1 nM and 6.7 nM, respectively. Also, the response vs control in vivo at 0.3 mg/kg in the assay on conscious rats was 279%.

What is called IC50 is the concentration that gives 50% inhibition.
